Assay results published in patent US8895032B2, “Dendritic nano-antioxidants” (Central Michigan University, priority 2009, dated 2014).

What was measured:
DPPH radical assay = conditions: read-out: DPPH IC50 at 120 min; Example 15
Method: The DPPH assay was one of three electron transfer (ET) assays used to determine the antioxidant potential of compound 1 (described in Example 6) in comparison to its monomeric counterpart (syringaldehyde) as well as popular antioxidants. In an ET assay, an antioxidant donates electron(s) to a molecular probe, thus reducing it. From the assay, thermodynamic conversion of antioxidant to antioxidant radical (oxidation) is measured during a fixed time period.
The reduction of DPPH radical was determined for ascorbic acid, Trolox, syringaldehyde, and the compound 1 described in Example 6 as previously reported (Brand-Williams, et al. Lebensm.-Wiss U.-Technol. 1995, 28, 25-30, incorporated herein by reference in its entirety). In the DPPH assay, DPPH• radical was reduced by the antioxidant in methanol (Brand-Williams, et al. Lebensm.-Wiss U.-Technol. 1995, 28, 25-30, incorporated herein by reference in its entirety). […] The DPPH reagent was made in methanol. Antioxidant sample (10 μL) was added to 1.0 mL of reagent and the absorbance was monitored at 515 nm until a plateau was reached. Antioxidant concentrations were 50 μM syringaldehyde, 12.5 μM Trolox and ascorbic acid, and 5 μM compound 1. All samples were made in methanol and run in triplicates at room temperature.
The DPPH• scavenging capacity of each antioxidant was evaluated from the plot of the percentage DPPH• remaining when the kinetics reached a steady state as a function of the molar ratios of antioxidant to DPPH•. […] Using the curve, EC50 (the amount of antioxidant necessary to decrease the initial DPPH• concentration by 50%), antiradical power (1/EC50, ability to reduce the DPPH•), reaction stoichiometry (EC50×2, the concentration of antioxidant required to reduce 100% of DPPH• radical), and the number of reduced DPPH• per antioxidant molecule (1/stoichiometry) for each antioxidant were calculated as previously described (Brand-Williams, et al. Lebensm.-Wiss U.-Technol. 1995, 28, 25-30, incorporated herein by reference in its entirety) and are depicted in Table 1.
Antioxidant capacity of the compounds was assessed by the DPPH assay (Brand-Williams, et al. Lebensm. Wiss. Technol. 1995, 28, 25, incorporated herein by reference in its entirety). […] In FIG. 22, control with methanol is (X, dashed); compound 1 is (□), compound 2 is (•), compound 3 is (◯), and Trolox (Δ). All antioxidant concentrations were 5 μM.
The free-radical scavenging ability of the antioxidants was evaluated by the DPPH assay, as described above in Example 7.

Human LDL = assay: Protection of LDL from AAPH oxidation (agarose gel electrophoresis); format: biochemical; conditions: 21 h, 37° C.
From the text: The antioxidant activity of compounds 1, 2, and 3 towards biomolecules was examined by studying their ability to protect LDL, fatty acid, and DNA from free radicals. For LDL, AAPH was used to induce free radical damage. AAPH was used instead of copper (Cu^2) ion for LDL oxidation so that the free radical scavenging activity of the antioxidants could be measured without any pro-oxidant interference caused by metal ions (Salah, N. et al. Arch. Biochem. Biophys. 1995, 322, 339, incorporated herein by reference in its entirety). All solutions were made in ultra-pure water.
Protection of LDL from AAPH free radicals by the antioxidant decreased the anodic shift in a dose-dependent manner (FIG. 23). […] The increased hydrophobicity of compound 3 may be partly responsible for its improved LDL protection over compound 2.
The antioxidant activity of the antioxidants towards biomolecules was examined by studying their ability to protect LDL, lysozyme, and DNA from free radicals. For LDL, AAPH was used to induce free radical damage. AAPH was used instead of Cu^2+ for LDL oxidation so that the free radical scavenging activity of the antioxidants could be measured without any pro-oxidant interference caused by metal ions. The oxidation of human low-density lipoprotein was used as a model for evaluating the ability of the G1 dendrimers as chain-breaking antioxidants for lipid. Oxidation of LDL leads to changes in both the lipid and the protein moieties of the lipoprotein particle. Lipid peroxidation in LDL has been evaluated by a variety of methods. Due to the complexity of events that occur in lipoprotein oxidation, the electrophoretic migration pattern of oxidized LDL is one of the best methods to evaluate the extent of lipoprotein oxidation. LDL was incubated with 20 mM AAPH and increasing concentrations of the G1 dendrimers (0-37 μM in PBS) for 21 h at 37° C. The mixture was then subjected to agarose gel electrophoresis using the Ciba Corning Clinical Electrophoresis System. The agarose gel was stained with Fat Red 7B. In FIG. 30A (top), lane 1 is native LDL, and lanes 2-8 are AAPH-oxidized LDL with 0, 37, 18.5, 9, 4.5, 2 and 1 μM compound 4, respectively. In FIG. 30B (bottom), lane 1 is native LDL, and lanes 2-8 are AAPH-oxidized LDL with 0, 37, 18.5, 9, 4.5, 2 and 1 μM quercetin or Trolox, respectively.

plasmid DNA pBR 322 = assay: Protection of plasmid DNA from AAPH damage (agarose electrophoresis); format: biochemical; conditions: 10 mM AAPH, 37° C., 4 h; for DNA protection: 5 μM antioxidant
Method: The effectiveness of the three compounds to protect DNA from AAPH damage was also determined. The plasmid DNA pBR 322 was incubated with AAPH (final concentration 10 mM) at 37° C. for 4 h with or without antioxidants (final concentrations, 0.35-45 μM), after which the samples were subjected to agarose electrophoresis (Sakihama, Y., et al. Toxicology 2002, 177, 67, incorporated herein by reference in its entirety). […] In the absence of AAPH, pBR 322 was mostly in its supercoiled (S) form (small amount of open circular, O, form was also visible, lane 1 FIG. 25). After reaction with AAPH, the DNA was transformed almost entirely into its open circular form (lane 2, FIG. 25). […] No protection was obtained for both compound 1 and quercetin below 5 μM (lanes 7-10, FIG. 25). […] Compound 3 as well as Trolox were ineffective at all concentrations used in the experiment (0.35-45 μM).
Protection of DNA from free radical damage by the antioxidant dendrimers (compounds 4, 5, and 1) was also evaluated. Plasmid DNA (pBR 322) samples, were incubated with AAPH (final concentration 10 mM) at 37° C. for 4 h with antioxidants (final concentrations, 0.35-45 μM) and subjected to agarose electrophoresis. […] The native DNA was mostly in its supercoiled (S) form (small amount of open circular, O, form was also visible, lane 1, FIG. 31). In the presence of AAPH, the DNA was transformed almost entirely into its O form (lane 2, FIG. 31). […] Negligible DNA protection was afforded by all three dendrimers at ≦2.5 μM (lanes 7-10, FIG. 31). Under similar conditions, Trolox as well as the starting materials for dendrimer synthesis were ineffective at all concentrations.

[1] = test system: Chinese hamster ovary (CHO-K1) cells; assay: Cell toxicity, MTT; format: cell-based; conditions: 3.1-50 μM, over 5 days
Method: Data on cell toxicity of compound 4 and compound 5 were obtained with Chinese hamster ovary (CHO) cells using 3-(4,5-di-methylthizol-2-yl)-2,5 diphenyltetrazolium bromide (MTT). Chinese Hamster Ovary (CHO-K1) cells were cultured in F-12K medium supplemented with 10% fetal bovine serum. The cells (3×10^5/ml) were seeded in 100 μL volumes in 96 well culture plates and incubated with the solvent control (DMSO, 0.3%), compound 4 or compound 5 at 3.1, 6.2, 12.5, 25, or 50 μM for 1, 3, or 5 days. Two hours prior to experimental termination, 20 μL of a 5 mg/mL MTT solution in 0.01 M PBS was added to each well. Plates were centrifuged at 450×g for 10 min and supernatant was removed. The resultant formazan crystals were dissolved in 100 μL DMSO and mixed. Absorbance was measured using a Biolog microplate reader (Biotek Instruments) at dual wavelengths, 590 and 650 nm. Percent control response was calculated as follows: (absorbance of treatment/absorbance of control)×100. All experiments were performed in triplicate and repeated. The data were analyzed using Systat 12 for windows. Multiple groups were compared using a one-way analysis of variance (ANOVA) and a Tukey test for mean separation. A p value<0.05 was considered statistically significant.

| Structure (SMILES) | IC50 (DPPH radical assay) [nM] | protection of LDL against free radical damage (Human LDL; 15 μM and 30 μM, 20 mM AAPH) | protection of LDL at lower concentrations (Human LDL; lanes 5-8, 20 mM AAPH) | DNA protection (plasmid DNA pBR 322) | DNA protection (S band intensity) (plasmid DNA pBR 322; 11-45 μM antioxidant) | CHO cell viability (MTT) [1] | only concentration effective in protecting LDL (Human LDL; 20 mM AAPH) [µM] |
| --- | --- | --- | --- | --- | --- | --- | --- |
| COc1cc(CN(CCN(CCN(Cc2cc(OC)c(O)c(OC)c2)Cc2cc(OC)c(O)c(OC)c2)CCN(Cc2cc(OC)c(O)c(OC)c2)Cc2cc(OC)c(O)c(OC)c2)Cc2cc(OC)c(O)c(OC)c2)cc(OC)c1O [Compound 4] | 2000 | fully protected | ineffective | Some protection | well protected | did not show any reduction in cell viability |  |
| COc1cc(CN(CCN(CCN(Cc2ccc(O)c(OC)c2)Cc2ccc(O)c(OC)c2)CCN(Cc2ccc(O)c(OC)c2)Cc2ccc(O)c(OC)c2)Cc2ccc(O)c(OC)c2)ccc1O [Compound 5] | 2000 |  |  | Some protection |  | did not show any reduction in cell viability | 30 |
